According to the NIST ThermoML archive (doi:10.1021/acs.jced.5b00242):
± gives the expanded uncertainty stated by the source.

Key:
[1] = refractive index (Na D-line) (dimensionless); conditions: 101 kPa, Liquid, Standard Abbe refractometry
[2] = Liquid; for viscosity: 101 kPa; for mass density: 101.33 kPa, Vibrating tube method
[3] = xn = mol fraction of the nth substance listed; conditions: 101 kPa, Liquid, x1 = 1; for viscosity: Stabinger Viscometer; for mass density: Vibrating tube method
[4] = refractive index (Na D-line) (dimensionless); xn = mol fraction of the nth substance listed; conditions: 101 kPa, Liquid, Standard Abbe refractometry, x1 = 1

CC[n+]1ccn(C)c1.N[C@@H](CO)C(=O)[O-] [3-ethyl-1-methyl-1H-imidazolium L-serinate]
Conditions	mass density, [2] [kg/m3]	refractive index, [1]
293.15 K	1206.8 ± 14	1.52699 ± 0.0041
298.15 K	1203.7 ± 14	1.52565 ± 0.0041
303.15 K	1200.5 ± 14	1.52429 ± 0.0041
308.15 K	1197.3 ± 14	1.52294 ± 0.0041
313.15 K	1194 ± 14	1.52159 ± 0.0041
318.15 K	1190.9 ± 14	1.52022 ± 0.0041
323.15 K	1187.8 ± 14	1.51887 ± 0.0041
328.15 K	1184.7 ± 14	1.51755 ± 0.0041
333.15 K	1181.7 ± 14	1.5162 ± 0.0041
338.15 K	1178.7 ± 14	1.51486 ± 0.0041
343.15 K	1175.7 ± 14	1.51353 ± 0.0041
348.15 K	1172.8 ± 14	1.5122 ± 0.0041
353.15 K	1169.7 ± 14	1.51084 ± 0.0041

[2], Stabinger Viscometer
Conditions	viscosity [mPa·s]
293.15 K	3796.8 ± 560
298.15 K	2235.5 ± 290
303.15 K	1376.2 ± 160
308.15 K	882.82 ± 88
313.15 K	588.27 ± 51
318.15 K	405.12 ± 30
323.15 K	287.6 ± 18
328.15 K	209.91 ± 11
333.15 K	157.29 ± 7.5
338.15 K	119.86 ± 5
343.15 K	93.36 ± 3.5
348.15 K	74.03 ± 2.5
353.15 K	59.91 ± 1.9

CCn1cc[n+](C)c1.NCCS(=O)(=O)[O-] [1-ethyl-3-methylimidazolium taurinate]
Conditions	mass density, [2] [kg/m3]	refractive index, [1]
293.15 K	1255 ± 15	1.5135 ± 0.0019
298.15 K	1251.5 ± 15	1.51217 ± 0.0019
303.15 K	1248.1 ± 15	1.51084 ± 0.0019
308.15 K	1244.8 ± 15	1.5095 ± 0.0019
313.15 K	1241.6 ± 15	1.50816 ± 0.0019
318.15 K	1238.6 ± 14	1.5068 ± 0.0019
323.15 K	1235.5 ± 14	1.50543 ± 0.0019
328.15 K	1232.4 ± 14	1.50403 ± 0.0019
333.15 K	1229.2 ± 14	1.5027 ± 0.0019
338.15 K	1226.1 ± 14	1.50136 ± 0.0019
343.15 K	1223 ± 14	1.49997 ± 0.0019
348.15 K	1219.9 ± 14	1.4986 ± 0.0019
353.15 K	1216.8 ± 14	1.49726 ± 0.0019

[2], Stabinger Viscometer
Conditions	viscosity [mPa·s]
293.15 K	760.89 ± 72
298.15 K	514.67 ± 42
303.15 K	359.36 ± 26
308.15 K	258.04 ± 16
313.15 K	190.44 ± 10
318.15 K	143.31 ± 6.6
323.15 K	110.35 ± 4.5
328.15 K	86.59 ± 3.1
333.15 K	69.36 ± 2.3
338.15 K	56.05 ± 1.8
343.15 K	46.1 ± 1.5
348.15 K	38.4 ± 1.3
353.15 K	32.53 ± 1.1

CCn1cc[n+](C)c1.N#C[C-](C#N)C#N [1-ethyl-3-methyl-1H-imidazolium tricyanomethanide] + CCn1cc[n+](C)c1.C[C@H](N)C(=O)[O-]
Conditions	mass density, [3] [kg/m3]	refractive index, [4]	viscosity, [3] [mPa·s]
293.15 K	1084.6 ± 15	1.51454 ± 0.00063	16.62 ± 0.7
298.15 K	1081 ± 15	1.51286 ± 0.00063	14.19 ± 0.6
303.15 K	1077.5 ± 15	1.51114 ± 0.00063	12.18 ± 0.51
308.15 K	1073.9 ± 15	1.50938 ± 0.00063	10.58 ± 0.44
313.15 K	1070.4 ± 15	1.50765 ± 0.00063	9.02 ± 0.38
318.15 K	1067.1 ± 15	1.50595 ± 0.00063	8.2 ± 0.34
323.15 K	1063.7 ± 15	1.50419 ± 0.00063	7.31 ± 0.31
328.15 K	1060.3 ± 15	1.50255 ± 0.00063	6.56 ± 0.28
333.15 K	1056.9 ± 15	1.50087 ± 0.00063	5.72 ± 0.24
338.15 K	1053.6 ± 15	1.49921 ± 0.00063	5.38 ± 0.23
343.15 K	1050.2 ± 15	1.49757 ± 0.00063	4.91 ± 0.21
348.15 K	1046.8 ± 15	1.49593 ± 0.00063	4.5 ± 0.19
353.15 K	1043.4 ± 15	1.49429 ± 0.00063	3.98 ± 0.17

CCn1cc[n+](C)c1.NCC(=O)[O-] [1-ethyl-3-methylimidazolium ammonioacetate]
Conditions	mass density, [2] [kg/m3]	refractive index, [1]
293.15 K	1164.3 ± 10	1.52134 ± 0.00087
298.15 K	1161.2 ± 10	1.51997 ± 0.00087
303.15 K	1158.1 ± 10	1.5186 ± 0.00087
308.15 K	1155 ± 10	1.51724 ± 0.00087
313.15 K	1152 ± 10	1.51585 ± 0.00087
318.15 K	1149 ± 10	1.5145 ± 0.00087
323.15 K	1146 ± 10	1.51313 ± 0.00087
328.15 K	1143 ± 10	1.51179 ± 0.00087
333.15 K	1139.9 ± 10	1.51041 ± 0.00087
338.15 K	1136.9 ± 10	1.50904 ± 0.00087
343.15 K	1133.8 ± 9.9	1.50769 ± 0.00087
348.15 K	1130.7 ± 9.9	1.50637 ± 0.00087
353.15 K	1127.4 ± 9.9	1.50495 ± 0.00087

[2], Stabinger viscometer
Conditions	viscosity [mPa·s]
293.15 K	240.18 ± 14
298.15 K	171.97 ± 8.2
303.15 K	126.19 ± 5.1
308.15 K	95.04 ± 3.3
313.15 K	73.5 ± 2.3
318.15 K	57.66 ± 1.6
323.15 K	46.21 ± 1.4
328.15 K	37.66 ± 1.1
333.15 K	31.24 ± 0.91
338.15 K	26.08 ± 0.76
343.15 K	22.11 ± 0.65
348.15 K	18.95 ± 0.55
353.15 K	16.45 ± 0.48

CCn1cc[n+](C)c1.C[C@H](N)C(=O)[O-] [1-ethyl-3-methylimidazolium L-alaninate]
Conditions	mass density, [2] [kg/m3]	refractive index, [1]
293.15 K	1126.3 ± 13	1.51366 ± 0.0011
298.15 K	1123 ± 13	1.51223 ± 0.0011
303.15 K	1119.8 ± 13	1.51081 ± 0.0011
308.15 K	1116.6 ± 13	1.50937 ± 0.0011
313.15 K	1113.5 ± 13	1.50793 ± 0.0011
318.15 K	1110.5 ± 13	1.50651 ± 0.0011
323.15 K	1107.5 ± 13	1.50505 ± 0.0011
328.15 K	1104.4 ± 13	1.50358 ± 0.0011
333.15 K	1101.3 ± 12	1.50217 ± 0.0011
338.15 K	1098.3 ± 12	1.50074 ± 0.0011
343.15 K	1095.2 ± 12	1.49932 ± 0.0011
348.15 K	1092.1 ± 12	1.49795 ± 0.0011
353.15 K	1088.9 ± 12	1.49656 ± 0.0011

[2], Stabinger Viscometer
Conditions	viscosity [mPa·s]
293.15 K	382.06 ± 28
298.15 K	263.98 ± 16
303.15 K	187.79 ± 9.8
308.15 K	137.47 ± 6.2
313.15 K	103.54 ± 4.1
318.15 K	79.34 ± 2.8
323.15 K	62.21 ± 2
328.15 K	49.69 ± 1.6
333.15 K	40.5 ± 1.3
338.15 K	33.22 ± 1.1
343.15 K	27.72 ± 0.91
348.15 K	23.38 ± 0.77
353.15 K	20.03 ± 0.66
